How the values were obtained:
Details in all cases: Compound concentration 10 µM
[1] = molecular target: T1, Alpha-2B adrenergic receptor (Homo sapiens) (UniProt P18089)
T1 sequence (whole entry): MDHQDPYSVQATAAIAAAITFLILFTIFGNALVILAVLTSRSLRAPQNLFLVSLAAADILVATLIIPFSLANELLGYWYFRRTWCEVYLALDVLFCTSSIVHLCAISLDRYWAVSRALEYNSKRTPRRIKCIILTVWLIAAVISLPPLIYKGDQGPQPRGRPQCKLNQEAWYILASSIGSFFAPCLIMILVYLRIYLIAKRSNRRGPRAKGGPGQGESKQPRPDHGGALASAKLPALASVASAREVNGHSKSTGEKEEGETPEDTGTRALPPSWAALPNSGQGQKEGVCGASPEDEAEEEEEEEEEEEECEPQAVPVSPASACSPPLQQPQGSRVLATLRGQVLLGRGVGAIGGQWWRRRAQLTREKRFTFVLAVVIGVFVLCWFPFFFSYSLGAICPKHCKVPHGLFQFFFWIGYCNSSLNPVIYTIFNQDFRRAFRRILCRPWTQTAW
Description: PDSP Primary Binding target: ADRA2B - Compounds are tested at 10 uM concentration, plate are incubated at room temperature in the dark for 90 minutes. Reaction are stopped by vacuum filtration onto 0.3% polyethyleneimine soaked filter mats using Filtermate harvester. Scintilation cocktail is then melted onto microwave-dried filters on a hot plate and the radio activity is counted in Microbia counter.

[2] = molecular target: Kappa-type opioid receptor (Homo sapiens) (UniProt P41145)
Chain of Kappa-type opioid receptor (Homo sapiens) (P41145 whole entry): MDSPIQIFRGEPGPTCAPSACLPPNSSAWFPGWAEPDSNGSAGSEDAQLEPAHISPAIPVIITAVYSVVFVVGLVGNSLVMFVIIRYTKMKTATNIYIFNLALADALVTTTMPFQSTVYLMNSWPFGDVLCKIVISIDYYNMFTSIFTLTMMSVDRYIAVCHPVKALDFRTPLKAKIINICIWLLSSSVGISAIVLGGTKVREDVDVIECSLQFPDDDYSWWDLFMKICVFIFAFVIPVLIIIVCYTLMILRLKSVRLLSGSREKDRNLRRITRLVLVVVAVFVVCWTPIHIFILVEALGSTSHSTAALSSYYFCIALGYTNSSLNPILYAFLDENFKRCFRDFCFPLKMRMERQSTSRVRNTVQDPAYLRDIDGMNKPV
Description: PDSP Primary Binding target: OPRK1 - Compounds are tested at 10 uM concentration, plate are incubated at room temperature in the dark for 90 minutes. Reaction are stopped by vacuum filtration onto 0.3% polyethyleneimine soaked filter mats using Filtermate harvester. Scintilation cocktail is then melted onto microwave-dried filters on a hot plate and the radio activity is counted in Microbia counter.

[3] = molecular target: D(1A) dopamine receptor (Homo sapiens) (UniProt P21728)
Chain of D(1A) dopamine receptor (Homo sapiens) (P21728 whole entry): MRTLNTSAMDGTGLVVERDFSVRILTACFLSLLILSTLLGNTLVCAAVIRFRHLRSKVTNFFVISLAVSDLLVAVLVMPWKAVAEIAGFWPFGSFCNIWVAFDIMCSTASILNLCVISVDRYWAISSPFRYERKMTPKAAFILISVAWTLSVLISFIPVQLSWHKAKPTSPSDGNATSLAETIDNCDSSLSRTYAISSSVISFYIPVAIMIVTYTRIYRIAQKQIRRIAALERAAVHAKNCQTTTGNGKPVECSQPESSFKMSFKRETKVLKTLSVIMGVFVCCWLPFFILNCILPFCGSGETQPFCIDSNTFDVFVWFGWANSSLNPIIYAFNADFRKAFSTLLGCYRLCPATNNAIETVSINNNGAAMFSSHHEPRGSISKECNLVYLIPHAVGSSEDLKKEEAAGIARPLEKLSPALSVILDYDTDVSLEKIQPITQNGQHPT
Description: PDSP Primary Binding target: DRD1 - Compounds are tested at 10 uM concentration, plate are incubated at room temperature in the dark for 90 minutes. Reaction are stopped by vacuum filtration onto 0.3% polyethyleneimine soaked filter mats using Filtermate harvester. Scintilation cocktail is then melted onto microwave-dried filters on a hot plate and the radio activity is counted in Microbia counter.

[4] = molecular target: Translocator protein (Homo sapiens) (UniProt P30536)
Chain of Translocator protein (Homo sapiens) (P30536 whole entry): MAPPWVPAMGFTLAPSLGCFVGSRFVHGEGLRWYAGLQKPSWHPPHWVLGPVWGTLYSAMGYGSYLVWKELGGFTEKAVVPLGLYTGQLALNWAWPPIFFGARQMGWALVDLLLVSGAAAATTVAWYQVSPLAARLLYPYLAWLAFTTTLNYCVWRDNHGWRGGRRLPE
Description: PDSP Primary Binding target: TSPO - Compounds are tested at 10 uM concentration, plate are incubated at room temperature in the dark for 90 minutes. Reaction are stopped by vacuum filtration onto 0.3% polyethyleneimine soaked filter mats using Filtermate harvester. Scintilation cocktail is then melted onto microwave-dried filters on a hot plate and the radio activity is counted in Microbia counter.

[5] = molecular target: Sodium-dependent dopamine transporter (Homo sapiens) (UniProt Q01959)
Chain of Sodium-dependent dopamine transporter (Homo sapiens) (Q01959 whole entry): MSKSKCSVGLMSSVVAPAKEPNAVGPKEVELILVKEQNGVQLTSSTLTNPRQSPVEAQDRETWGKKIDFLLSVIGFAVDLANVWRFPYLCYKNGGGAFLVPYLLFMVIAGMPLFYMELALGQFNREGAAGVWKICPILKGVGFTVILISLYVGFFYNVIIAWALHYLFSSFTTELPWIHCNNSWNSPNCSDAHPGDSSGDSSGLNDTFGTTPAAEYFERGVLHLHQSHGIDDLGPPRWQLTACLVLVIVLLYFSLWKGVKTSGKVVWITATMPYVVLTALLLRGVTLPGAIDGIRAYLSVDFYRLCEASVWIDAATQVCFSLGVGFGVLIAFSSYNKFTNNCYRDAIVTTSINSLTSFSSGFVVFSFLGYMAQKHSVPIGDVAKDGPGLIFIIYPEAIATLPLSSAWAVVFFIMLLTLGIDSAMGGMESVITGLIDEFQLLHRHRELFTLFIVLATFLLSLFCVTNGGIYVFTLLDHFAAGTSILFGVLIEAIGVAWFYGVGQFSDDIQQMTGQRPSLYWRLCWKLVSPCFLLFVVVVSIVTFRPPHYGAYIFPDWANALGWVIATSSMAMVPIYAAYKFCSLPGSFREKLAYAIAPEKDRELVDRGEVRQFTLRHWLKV
Description: PDSP Primary Binding target: SLC6A3 - Compounds are tested at 10 uM concentration, plate are incubated at room temperature in the dark for 90 minutes. Reaction are stopped by vacuum filtration onto 0.3% polyethyleneimine soaked filter mats using Filtermate harvester. Scintilation cocktail is then melted onto microwave-dried filters on a hot plate and the radio activity is counted in Microbia counter.

[6] = molecular target: T2, Alpha-1A adrenergic receptor (Homo sapiens) (UniProt P35348)
T2 sequence (whole entry): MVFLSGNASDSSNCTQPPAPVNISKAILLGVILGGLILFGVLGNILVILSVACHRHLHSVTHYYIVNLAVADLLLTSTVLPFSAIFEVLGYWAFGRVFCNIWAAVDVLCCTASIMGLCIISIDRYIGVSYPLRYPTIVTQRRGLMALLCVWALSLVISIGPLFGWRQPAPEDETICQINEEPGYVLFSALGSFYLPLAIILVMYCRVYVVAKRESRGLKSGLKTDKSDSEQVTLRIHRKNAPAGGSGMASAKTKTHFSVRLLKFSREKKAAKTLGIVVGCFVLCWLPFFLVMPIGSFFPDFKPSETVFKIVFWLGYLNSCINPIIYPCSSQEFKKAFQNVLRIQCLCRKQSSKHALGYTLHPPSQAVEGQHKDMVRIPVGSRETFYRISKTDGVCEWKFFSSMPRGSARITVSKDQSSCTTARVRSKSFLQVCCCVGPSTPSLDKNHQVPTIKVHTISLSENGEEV
Description: PDSP Primary Binding target: ADRA1A - Compounds are tested at 10 uM concentration, plate are incubated at room temperature in the dark for 90 minutes. Reaction are stopped by vacuum filtration onto 0.3% polyethyleneimine soaked filter mats using Filtermate harvester. Scintilation cocktail is then melted onto microwave-dried filters on a hot plate and the radio activity is counted in Microbia counter.

[7] = molecular target: T3, 5-hydroxytryptamine receptor 1A (Homo sapiens) (UniProt P08908)
T3 sequence (whole entry): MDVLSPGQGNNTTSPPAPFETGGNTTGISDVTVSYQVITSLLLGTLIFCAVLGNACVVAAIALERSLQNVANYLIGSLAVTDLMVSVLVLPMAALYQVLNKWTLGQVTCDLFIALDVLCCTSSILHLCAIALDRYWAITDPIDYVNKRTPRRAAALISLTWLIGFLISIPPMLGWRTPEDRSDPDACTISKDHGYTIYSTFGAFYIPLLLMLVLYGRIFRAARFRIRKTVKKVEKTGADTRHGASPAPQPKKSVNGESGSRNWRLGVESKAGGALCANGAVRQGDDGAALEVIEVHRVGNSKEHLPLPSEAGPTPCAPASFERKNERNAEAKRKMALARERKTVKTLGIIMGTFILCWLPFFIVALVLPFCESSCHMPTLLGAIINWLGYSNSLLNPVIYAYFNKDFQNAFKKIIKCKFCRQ
Description: PDSP Primary Binding target: HTR1A - Compounds are tested at 10 uM concentration, plate are incubated at room temperature in the dark for 90 minutes. Reaction are stopped by vacuum filtration onto 0.3% polyethyleneimine soaked filter mats using Filtermate harvester. Scintilation cocktail is then melted onto microwave-dried filters on a hot plate and the radio activity is counted in Microbia counter.

[8] = molecular target: D(2) dopamine receptor (Homo sapiens) (UniProt P14416)
Chain of D(2) dopamine receptor (Homo sapiens) (P14416 whole entry): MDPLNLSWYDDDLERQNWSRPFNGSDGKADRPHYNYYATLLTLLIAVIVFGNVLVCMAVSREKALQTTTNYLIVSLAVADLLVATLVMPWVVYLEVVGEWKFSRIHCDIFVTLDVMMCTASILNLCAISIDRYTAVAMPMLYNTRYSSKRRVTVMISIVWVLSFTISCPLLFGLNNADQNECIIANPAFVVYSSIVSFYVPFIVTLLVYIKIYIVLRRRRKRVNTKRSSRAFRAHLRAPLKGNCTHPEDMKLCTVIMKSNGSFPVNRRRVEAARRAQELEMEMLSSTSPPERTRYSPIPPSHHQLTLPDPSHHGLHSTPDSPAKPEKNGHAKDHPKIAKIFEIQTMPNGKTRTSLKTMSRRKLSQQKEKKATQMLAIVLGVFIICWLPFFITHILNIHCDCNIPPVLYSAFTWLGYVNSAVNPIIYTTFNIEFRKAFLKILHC
Description: PDSP Primary Binding target: DRD2 - Compounds are tested at 10 uM concentration, plate are incubated at room temperature in the dark for 90 minutes. Reaction are stopped by vacuum filtration onto 0.3% polyethyleneimine soaked filter mats using Filtermate harvester. Scintilation cocktail is then melted onto microwave-dried filters on a hot plate and the radio activity is counted in Microbia counter.

[9] = molecular target: T4, D(4) dopamine receptor (Homo sapiens) (UniProt P21917)
T4 sequence (whole entry): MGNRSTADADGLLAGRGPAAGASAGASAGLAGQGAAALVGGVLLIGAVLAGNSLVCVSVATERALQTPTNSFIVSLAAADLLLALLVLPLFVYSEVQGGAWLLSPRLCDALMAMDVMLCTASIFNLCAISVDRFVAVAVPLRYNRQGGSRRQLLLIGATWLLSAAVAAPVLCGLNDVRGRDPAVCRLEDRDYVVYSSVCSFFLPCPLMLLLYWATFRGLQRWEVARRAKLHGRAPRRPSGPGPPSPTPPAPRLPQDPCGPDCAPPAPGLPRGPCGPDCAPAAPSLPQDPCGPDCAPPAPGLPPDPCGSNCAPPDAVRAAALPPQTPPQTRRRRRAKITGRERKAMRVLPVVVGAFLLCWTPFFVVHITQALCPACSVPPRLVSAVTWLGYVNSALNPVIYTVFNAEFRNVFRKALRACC
Description: PDSP Primary Binding target: DRD4 - Compounds are tested at 10 uM concentration, plate are incubated at room temperature in the dark for 90 minutes. Reaction are stopped by vacuum filtration onto 0.3% polyethyleneimine soaked filter mats using Filtermate harvester. Scintilation cocktail is then melted onto microwave-dried filters on a hot plate and the radio activity is counted in Microbia counter.

[10] = molecular target: 5-hydroxytryptamine receptor 1E (Homo sapiens) (UniProt P28566)
Chain of 5-hydroxytryptamine receptor 1E (Homo sapiens) (P28566 whole entry): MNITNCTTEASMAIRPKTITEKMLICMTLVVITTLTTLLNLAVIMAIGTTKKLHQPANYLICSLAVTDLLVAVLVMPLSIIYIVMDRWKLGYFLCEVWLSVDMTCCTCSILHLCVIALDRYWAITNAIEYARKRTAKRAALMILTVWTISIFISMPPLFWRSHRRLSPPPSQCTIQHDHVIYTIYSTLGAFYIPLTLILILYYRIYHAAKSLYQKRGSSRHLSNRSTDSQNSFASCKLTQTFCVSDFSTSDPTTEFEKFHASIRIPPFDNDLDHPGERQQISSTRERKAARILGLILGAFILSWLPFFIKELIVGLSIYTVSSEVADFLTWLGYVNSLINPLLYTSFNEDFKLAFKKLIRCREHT
Description: PDSP Primary Binding target: HTR1E - Compounds are tested at 10 uM concentration, plate are incubated at room temperature in the dark for 90 minutes. Reaction are stopped by vacuum filtration onto 0.3% polyethyleneimine soaked filter mats using Filtermate harvester. Scintilation cocktail is then melted onto microwave-dried filters on a hot plate and the radio activity is counted in Microbia counter.

[11] = molecular target: T5, Muscarinic acetylcholine receptor M4 (Homo sapiens) (UniProt P08173)
T5 sequence (whole entry): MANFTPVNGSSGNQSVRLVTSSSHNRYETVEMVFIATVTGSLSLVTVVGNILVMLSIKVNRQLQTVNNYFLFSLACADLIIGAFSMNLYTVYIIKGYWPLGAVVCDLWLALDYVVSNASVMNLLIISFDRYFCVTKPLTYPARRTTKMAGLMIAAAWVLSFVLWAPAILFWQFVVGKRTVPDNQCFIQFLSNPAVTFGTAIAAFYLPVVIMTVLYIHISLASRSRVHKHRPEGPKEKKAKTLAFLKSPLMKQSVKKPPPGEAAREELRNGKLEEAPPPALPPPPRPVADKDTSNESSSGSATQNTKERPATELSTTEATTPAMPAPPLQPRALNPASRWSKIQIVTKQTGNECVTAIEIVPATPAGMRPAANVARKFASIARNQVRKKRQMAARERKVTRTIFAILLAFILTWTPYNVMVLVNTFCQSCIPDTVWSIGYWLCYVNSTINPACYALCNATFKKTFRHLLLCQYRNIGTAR
Description: PDSP Primary Binding target: CHRM4 - Compounds are tested at 10 uM concentration, plate are incubated at room temperature in the dark for 90 minutes. Reaction are stopped by vacuum filtration onto 0.3% polyethyleneimine soaked filter mats using Filtermate harvester. Scintilation cocktail is then melted onto microwave-dried filters on a hot plate and the radio activity is counted in Microbia counter.

[12] = molecular target: Beta-2 adrenergic receptor (Homo sapiens) (UniProt P07550)
Chain of Beta-2 adrenergic receptor (Homo sapiens) (P07550 whole entry, looked up): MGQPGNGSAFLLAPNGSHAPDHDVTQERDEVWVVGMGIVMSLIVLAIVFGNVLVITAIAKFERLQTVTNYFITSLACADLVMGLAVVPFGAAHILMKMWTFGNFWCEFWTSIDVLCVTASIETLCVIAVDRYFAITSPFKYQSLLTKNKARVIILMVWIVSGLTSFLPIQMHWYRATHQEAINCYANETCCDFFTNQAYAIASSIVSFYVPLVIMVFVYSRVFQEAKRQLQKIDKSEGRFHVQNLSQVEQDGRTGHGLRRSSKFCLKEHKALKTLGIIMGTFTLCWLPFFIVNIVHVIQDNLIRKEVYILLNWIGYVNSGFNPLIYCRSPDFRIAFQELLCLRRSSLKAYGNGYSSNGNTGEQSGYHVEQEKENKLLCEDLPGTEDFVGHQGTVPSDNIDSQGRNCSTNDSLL
Description: PDSP Primary Binding target: ADRB2 - Compounds are tested at 10 uM concentration, plate are incubated at room temperature in the dark for 90 minutes. Reaction are stopped by vacuum filtration onto 0.3% polyethyleneimine soaked filter mats using Filtermate harvester. Scintilation cocktail is then melted onto microwave-dried filters on a hot plate and the radio activity is counted in Microbia counter.

[13] = molecular target: 5-hydroxytryptamine receptor 6 (Homo sapiens) (UniProt P50406)
Chain of 5-hydroxytryptamine receptor 6 (Homo sapiens) (P50406 whole entry): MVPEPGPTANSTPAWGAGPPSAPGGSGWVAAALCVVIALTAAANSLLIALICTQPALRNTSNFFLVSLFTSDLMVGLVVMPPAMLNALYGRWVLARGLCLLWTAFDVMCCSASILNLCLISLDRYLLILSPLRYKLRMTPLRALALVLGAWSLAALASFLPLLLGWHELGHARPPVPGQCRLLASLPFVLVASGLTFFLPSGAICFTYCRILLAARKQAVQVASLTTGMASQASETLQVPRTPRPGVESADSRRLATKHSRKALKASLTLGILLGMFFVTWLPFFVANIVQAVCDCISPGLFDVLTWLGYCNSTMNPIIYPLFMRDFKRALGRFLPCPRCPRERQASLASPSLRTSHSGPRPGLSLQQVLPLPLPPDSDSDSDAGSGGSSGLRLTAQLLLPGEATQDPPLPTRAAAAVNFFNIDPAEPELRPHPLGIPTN
Description: PDSP Primary Binding target: HTR6 - Compounds are tested at 10 uM concentration, plate are incubated at room temperature in the dark for 90 minutes. Reaction are stopped by vacuum filtration onto 0.3% polyethyleneimine soaked filter mats using Filtermate harvester. Scintilation cocktail is then melted onto microwave-dried filters on a hot plate and the radio activity is counted in Microbia counter.

[14] = molecular target: 5-hydroxytryptamine receptor 1B (Homo sapiens) (UniProt P28222)
Chain of 5-hydroxytryptamine receptor 1B (Homo sapiens) (P28222 whole entry): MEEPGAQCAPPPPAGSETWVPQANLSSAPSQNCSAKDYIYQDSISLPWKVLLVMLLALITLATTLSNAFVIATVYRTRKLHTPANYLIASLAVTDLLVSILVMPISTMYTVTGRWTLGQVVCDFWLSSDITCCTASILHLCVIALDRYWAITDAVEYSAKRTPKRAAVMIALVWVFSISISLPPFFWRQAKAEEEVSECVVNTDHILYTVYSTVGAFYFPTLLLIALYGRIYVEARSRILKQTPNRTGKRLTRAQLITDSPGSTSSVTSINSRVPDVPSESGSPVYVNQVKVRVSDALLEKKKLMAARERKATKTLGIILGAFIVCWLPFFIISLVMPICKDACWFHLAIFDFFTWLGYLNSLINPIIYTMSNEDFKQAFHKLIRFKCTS
Description: PDSP Primary Binding target: HTR1B - Compounds are tested at 10 uM concentration, plate are incubated at room temperature in the dark for 90 minutes. Reaction are stopped by vacuum filtration onto 0.3% polyethyleneimine soaked filter mats using Filtermate harvester. Scintilation cocktail is then melted onto microwave-dried filters on a hot plate and the radio activity is counted in Microbia counter.

[15] = molecular target: 5-hydroxytryptamine receptor 5A (Homo sapiens) (UniProt P47898)
Chain of 5-hydroxytryptamine receptor 5A (Homo sapiens) (P47898 whole entry): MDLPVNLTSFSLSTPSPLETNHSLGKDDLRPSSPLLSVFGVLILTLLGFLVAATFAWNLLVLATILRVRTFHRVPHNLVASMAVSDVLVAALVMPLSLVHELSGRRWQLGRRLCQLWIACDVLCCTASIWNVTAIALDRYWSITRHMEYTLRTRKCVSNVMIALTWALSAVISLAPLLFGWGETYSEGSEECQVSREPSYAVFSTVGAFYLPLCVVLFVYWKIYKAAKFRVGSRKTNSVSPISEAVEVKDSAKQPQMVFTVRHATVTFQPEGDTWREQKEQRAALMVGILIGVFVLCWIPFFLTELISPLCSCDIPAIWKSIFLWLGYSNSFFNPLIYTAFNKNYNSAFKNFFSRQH
Description: PDSP Primary Binding target: HTR5A - Compounds are tested at 10 uM concentration, plate are incubated at room temperature in the dark for 90 minutes. Reaction are stopped by vacuum filtration onto 0.3% polyethyleneimine soaked filter mats using Filtermate harvester. Scintilation cocktail is then melted onto microwave-dried filters on a hot plate and the radio activity is counted in Microbia counter.

Structure (SMILES)	inhibition [1]	inhibition [2]	inhibition [3]	inhibition [4]	inhibition [5]	inhibition [6]	inhibition [7]	inhibition [8]	inhibition [9]	inhibition [10]	inhibition [11]	inhibition [12]	inhibition [13]	inhibition [14]	inhibition [15]
O=C(Nc1ccc(Cl)cc1)Nc1cccc(-c2cccc(N3CCCC3)n2)c1	5.47%	7.04%	6.95%	34.9%	18.3%	1.27%	28.2%	8.25%	5.64%	2.89%	18.8%				
C=CCN1C[C@H](C)N([C@H](c2ccc(C(=O)N(CC)CC)cc2)c2cccc(O)c2)C[C@H]1C	9.01%	99.8%	2.02%	20.7%	26.9%	16.8%		-2.85%		19.5%	-5.52%	3.05%	5.03%	27.1%	
CCCCCCCCCCCCCCCCOC[C@H](COP(=O)([O-])OCC[N+](C)(C)C)OC(C)=O	68.8%	11.9%				34.5%	2.85%	7.75%	16.4%	11.7%	-0.21%		4.6%	13.9%	17.5%
COc1cc2c(CCNC(C)=O)c[nH]c2cc1Cl	9.08%	-6.29%	5.8%	20.1%	14.1%	1.85%	-4.64%	-7.31%	-6.09%	16.3%		3.89%		25.2%	
O=C(O)CC/C=C\C[C@@H]1CO[C@H](c2ccccc2Cl)O[C@@H]1c1ccccc1O		5.7%	-0.4%	8.35%		-9.2%	16.9%	4.25%		-6.67%		-6.03%	-3.05%		
O=C(Cc1ccccc1)Nc1nc2ccc(Cl)cc2c2nc(-c3ccco3)nn12	4.67%	12.4%		18.7%	27.1%	10.4%	-8.72%	1.93%	33.2%	7.51%	-5.46%	2.33%	-2.97%		15.2%
Cc1cccc(NC(=O)N[C@@H]2N=C(c3ccccc3)c3ccccc3N(C)C2=O)c1	7.07%	22.5%		27.5%	44.1%	-7.27%	-9.64%	14.2%	14.6%	18.6%	-5.23%	-4.38%	6.3%	16.2%	
N#Cc1c(N)nc(SCC(N)=O)c(C#N)c1-c1ccc(OCC2CC2)cc1	-9.96%	89%		39%	3.03%	16.2%	2.75%		8.04%		34.5%		3.97%		7.71%
Cc1cc(C)cc(C(=O)N(C)[C@H](Cc2ccc(-c3ccccc3)cc2)C(=O)N[C@@H](Cc2c[nH]c3ccccc23)C(=O)O)c1	7.27%	46.1%		28.8%	32.2%	22.3%	15.9%		11.8%		1%	3.37%			
Cc1cc(NC(=O)Nc2ccc(N(C)C)cc2)c2cc(F)cc(F)c2n1	3.9%	22.3%	29.1%	8.35%	22.8%	3.42%		52.2%	25.9%	-4.12%	2.31%	16.5%			
O=c1ccn([C@@H]2O[C@H](COP(=O)(O)OP(=O)(O)O)[C@@H](O)[C@H]2O)c(=O)[nH]1	-3.44%	6.04%		5.14%	6.84%	-6.92%	5.47%	14.8%		9.09%	9.94%	-0.48%	6.18%	1.75%	
C[C@H](NC[C@H](O)CP(=O)(O)CC1CCCCC1)c1ccc(Cl)c(Cl)c1		52.3%			62.1%	1.74%	-7.25%	10.4%	13.4%	-8.21%	-3.27%	-1.65%	2.61%		-8.92%
CC(C)(C)NC[C@H](O)COc1nsnc1N1CCOCC1		3.37%		0.37%	31.4%	2.77%	39.4%	6.14%	15.6%	7.32%	-8.25%			17.9%	
CC(C)NCC(O)c1ccc(N)c(C#N)c1 (configuration not stated)		9.69%	-2.82%		29%	-0.15%	37.6%	1.95%	-4.2%	32.7%		95.5%	18%		
N#Cc1cccc(C(=O)Nc2cc(-c3ccccc3)nn2-c2ccccc2)c1	0.47%	16.2%			2.12%	4.85%	14.8%	-0.08%	4.16%	3.88%	-7.29%	1.08%	6.69%	23.3%	1.34%
